The record followed here is ChEMBL document CHEMBL1124878, “Synthesis, phencyclidine-like pharmacology, and antiischemic potential of meta-substituted 1-(1-phenylcyclohexyl)-1,2,3,6-tetrahydropyridines” (J Med Chem, 1990).

Assay [1] has as its target T1, Glutamate receptor ionotropic, NMDA 2C (Rattus norvegicus, UniProt Q00961). The assay is described as follows: Ability to displace [3H]TCP from PCP receptor in tissue homogenate preparation of fresh whole rat brain minus cerebellum. It is filed as tissue-based.
For assay [2], the target named is T1, Glutamate receptor ionotropic, NMDA 2C. Put plainly: Ability to displace [3H]- TCP from PCP receptor in tissue homogenate preparation of fresh whole rat brain minus cerebellum. It is filed as tissue-based.

T1 sequence (Q00961 whole entry): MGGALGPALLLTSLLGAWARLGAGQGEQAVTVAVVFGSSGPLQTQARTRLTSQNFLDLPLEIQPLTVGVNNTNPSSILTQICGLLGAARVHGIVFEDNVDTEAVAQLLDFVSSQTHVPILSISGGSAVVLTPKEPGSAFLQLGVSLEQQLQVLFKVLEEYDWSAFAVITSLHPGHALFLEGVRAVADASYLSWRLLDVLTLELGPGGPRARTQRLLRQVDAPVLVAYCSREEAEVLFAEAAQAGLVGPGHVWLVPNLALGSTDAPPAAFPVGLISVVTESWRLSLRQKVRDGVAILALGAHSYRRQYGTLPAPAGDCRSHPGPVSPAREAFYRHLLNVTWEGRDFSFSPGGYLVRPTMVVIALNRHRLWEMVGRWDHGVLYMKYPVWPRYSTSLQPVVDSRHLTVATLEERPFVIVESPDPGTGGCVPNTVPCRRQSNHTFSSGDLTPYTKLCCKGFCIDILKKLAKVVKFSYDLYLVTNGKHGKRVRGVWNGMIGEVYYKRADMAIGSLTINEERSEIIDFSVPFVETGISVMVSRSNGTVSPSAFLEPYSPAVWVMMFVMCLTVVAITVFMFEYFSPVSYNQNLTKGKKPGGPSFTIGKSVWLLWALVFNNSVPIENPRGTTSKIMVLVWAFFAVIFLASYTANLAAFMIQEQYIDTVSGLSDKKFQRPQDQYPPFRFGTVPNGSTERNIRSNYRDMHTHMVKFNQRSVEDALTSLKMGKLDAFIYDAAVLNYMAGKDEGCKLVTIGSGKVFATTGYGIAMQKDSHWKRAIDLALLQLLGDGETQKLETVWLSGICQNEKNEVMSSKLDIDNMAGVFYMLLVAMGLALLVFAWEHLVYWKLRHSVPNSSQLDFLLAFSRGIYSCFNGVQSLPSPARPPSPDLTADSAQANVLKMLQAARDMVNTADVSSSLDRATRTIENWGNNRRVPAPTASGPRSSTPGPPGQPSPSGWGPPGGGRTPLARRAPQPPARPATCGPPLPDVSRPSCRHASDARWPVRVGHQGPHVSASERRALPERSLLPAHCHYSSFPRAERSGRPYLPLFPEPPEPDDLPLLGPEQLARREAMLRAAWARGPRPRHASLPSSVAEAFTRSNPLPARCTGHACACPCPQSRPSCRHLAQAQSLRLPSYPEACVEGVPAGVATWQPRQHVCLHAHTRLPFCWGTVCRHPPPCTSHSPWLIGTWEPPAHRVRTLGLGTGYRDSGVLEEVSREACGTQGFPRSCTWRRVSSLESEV

Consider `C1=CCN(C2(c3cccs3)CCCCC2)CC1`, for which, in assay [1], the Ki is 12 nM.
In assay [2], `C=Cc1cccc(C2(N3CC=CCC3)CCCCC2)c1` came in with a Ki of 114 nM.
The same measure, in the same setting: the figure for `C1=CCN(C2(c3ccccc3)CCCCC2)CC1` is 37 nM.
Take `O/N=C/c1cccc(C2(N3CC=CCC3)CCCCC2)c1`: in assay [1], the affinity, expressed as Ki, was 56 nM. In other words, the double-digit nanomolar range.
As to `Cc1cccc(C2(N3CC=CCC3)CCCCC2)c1`, the Ki in assay [2] was found to be 81 nM.
For `COc1cc(OC)cc(C2(N3CC=CCC3)CCCCC2)c1`, the Ki in assay [1] was 8600 nM.
`CSc1cccc(C2(N3CC=CCC3)CCCCC2)c1`: affinity in assay [2] was put at a Ki of 231 nM.
Same read-out and setting: the figure for `COCOc1cccc(C2(N3CC=CCC3)CCCCC2)c1` is 92 nM.
In turn, `COc1cccc(C2(N3CC=CCC3)CCCCC2)c1` registered a Ki in assay [1] of 33 nM.
`FC(F)(F)c1cccc(C2(N3CC=CCC3)CCCCC2)c1`: in assay [2], the affinity, expressed as Ki, was 422 nM.
Turning to `Oc1cccc(C2(N3CC=CCC3)CCCCC2)c1`, in assay [1], the Ki amounted to 7 nM.
In turn, `O=Cc1cccc(C2(N3CC=CCC3)CCCCC2)c1` displayed a Ki in assay [2] of 324 nM.
Same read-out and setting: the figure for `CC(=O)Oc1cccc(C2(N3CC=CCC3)CCCCC2)c1` is 6 nM.
The compound `C1=CCN(C2(c3cccc(C4OCCO4)c3)CCCCC2)CC1` yielded a Ki in assay [1] of 601 nM.
For the compound `Fc1cccc(C2(N3CC=CCC3)CCCCC2)c1`, the affinity in assay [2], expressed as Ki, was 281 nM. In other words, the sub-micromolar range.
`C1=CCN(C2(c3cccc(OCc4ccccc4)c3)CCCCC2)CC1`: the affinity in assay [1] corresponds to a Ki of 733 nM.

Broadly, the Ki is the dissociation constant of the complex between target and ligand, obtained from inhibition or displacement. A low value points to a stronger hold on the target.
